Source: ChEMBL document CHEMBL1129855, “Molecular connectivity to find -blockers with low toxicity” (Bioorg Med Chem Lett, 1997)

Legend:
Settings in all cases: mouse, in vivo
[1] = Compound was tested for its toxicity after oral administration to mice in experiment 1
[2] = Compound was tested for its toxicity after oral administration to mice in experiment 2
[3] = Compound was tested for its toxicity after intravenous administration to mice in experiment 1
[4] = Compound was tested for its toxicity after intravenous administration to mice in experiment 2
[5] = Compound was tested for its toxicity after intravenous administration in mice
[6] = The activity was measured in mice after oral administration of the compound; format: ADME
[7] = Compound was tested for its toxicity after oral administration in mice
[8] = Compound was tested for its toxicity after intravenous administration to mice

SMILES	LD50 [1]	LD50 [2]	LD50 [3]	LD50 [4]	further results
CCN(CC)C(=O)Nc1ccc(OCC(O)CNC(C)(C)C)c(C(C)=O)c1 (stereo unspecified) [CELIPROLOL]	1830 mg/kg	1770 mg/kg	56.2 mg/kg	42.8 mg/kg	
CCC(C)NCC(O)c1ccc2c(c1)CCCC2 (stereo unspecified) [BUTIDRINE]	235 mg/kg	212 mg/kg	20.2 mg/kg	24.6 mg/kg	
N/C(CC(O)COc1cccc2ccccc12)=N/O (stereo unspecified) [NADOXOLOL]	1000 mg/kg	710 mg/kg	180 mg/kg	119 mg/kg	
CC(C)(C)NCC(O)COc1ccc(NC(=O)NC2CCCCC2)cc1 (stereo unspecified) [TALINOLOL]	593 mg/kg	1050 mg/kg	25 mg/kg	25.8 mg/kg	
CCCC(=O)Nc1ccc(OCC(O)CNC(C)C)c(C(C)=O)c1 (stereo unspecified) [ACEBUTOLOL]			76 mg/kg	82.2 mg/kg	
CC(C)(C)NCC(O)COc1cccc2c1CCCC2=O (single isomer, unassigned) [LEVOBUNOLOL]	700 mg/kg	798 mg/kg	25 mg/kg	37.7 mg/kg	
O=C(O)C1CCc2cc(C3CCCCC3)c(Cl)cc21 (stereo unspecified)	41 mg/kg	252 mg/kg			LD50 [5]: 34 mg/kg
CC(C)(C)NC[C@H](O)COc1nsnc1N1CCOCC1 [TIMOLOL]	1190 mg/kg	1460 mg/kg			
CC(C)NCC(O)COc1cccc2c1C=CC2 (stereo unspecified) [INDENOLOL]			26 mg/kg	32.4 mg/kg	
CC(C)(C)NCC(O)CSc1nc(-c2ccc(C(N)=O)s2)cs1 (stereo unspecified) [AROTINOLOL]				57.8 mg/kg	
CC1=C(/C=C/C(C)=C/C=C/C(C)=C/C=C/C=C(C)/C=C/C=C(C)/C=C/C2=C(C)CCCC2(C)C)C(C)(C)CCC1 [BETA CAROTENE]					LD50 [6]: 6750 mg/kg; LD50 [7]: 26 mg/kg
Cc1ccc(OCC(O)CNC(C)(C)C)c2oc(=O)ccc12 (stereo unspecified) [BUCUMOLOL]	676 mg/kg	828 mg/kg	33.1 mg/kg	46.8 mg/kg	
CC(C)NCC(O)COc1ccc(CCOCC2CC2)cc1 (stereo unspecified) [BETAXOLOL]	944 mg/kg	625 mg/kg	37 mg/kg	38 mg/kg	
CC(CCc1ccccc1)NCC(O)c1ccc(O)c(C(N)=O)c1 (stereo unspecified) [LABETALOL]	1450 mg/kg	1370 mg/kg	47 mg/kg	51.1 mg/kg	
CC(=O)c1cc2cccc(OCC(O)CNC(C)C)c2o1 (stereo unspecified) [BEFUNOLOL]			102 mg/kg	75.1 mg/kg	
CC(C)(C)NCC(O)COc1ccccc1OCC1CCCO1 (stereo unspecified) [BUFETOLOL]	409 mg/kg	238 mg/kg			
CCc1cccc2cc(C(O)CNC(C)(C)C)oc12 (stereo unspecified) [BUFURALOL]	117 mg/kg	273 mg/kg	29.7 mg/kg	25.9 mg/kg	
CC(C)NCC(O)c1ccc2ccccc2c1 (stereo unspecified) [PRONETALOL]	512 mg/kg	486 mg/kg	46 mg/kg	38 mg/kg	
CC(=O)Oc1c(C)cc(OCC(O)CNC(C)C)c(C)c1C (stereo unspecified) [METIPRANOLOL]			31 mg/kg	38.8 mg/kg	
CC(C)(C)NCC(O)COc1cccc2c1SCCC2 (stereo unspecified) [TERTATOLOL]			37 mg/kg	34.1 mg/kg	
CC(C)NCC(O)c1ccc(NS(C)(=O)=O)cc1 (stereo unspecified) [SOTALOL]	2600 mg/kg	2630 mg/kg			
Cc1cc2c(OCC(CNC(C)(C)C)OC(=O)c3ccccc3)cccc2[nH]1 (stereo unspecified) [BOPINDOLOL]			17 mg/kg	15.9 mg/kg	
C=CCc1ccccc1OCC(O)CNC(C)C (stereo unspecified) [ALPRENOLOL]	278 mg/kg	415 mg/kg			
CC(C)(Sc1cc(C(C)(C)C)c(O)c(C(C)(C)C)c1)Sc1cc(C(C)(C)C)c(O)c(C(C)(C)C)c1 [PROBUCOL]	> 5000 mg/kg				LD50 [8]: 25 mg/kg
CC(C)(C)NCC(O)COc1cccc2c1C[C@H](O)[C@H](O)C2 (stereo partly specified) [NADOLOL]	4500 mg/kg	2710 mg/kg			
COCCc1ccc(OCC(O)CNC(C)C)cc1 (stereo unspecified) [METOPROLOL]	2090 mg/kg	3060 mg/kg	118 mg/kg	292 mg/kg	
CCCCCC(O)C1C(=O)OC(C)C(O)/C=C/C=C/C=C/C=C/C=C(\C)C(O)CC(O)CC(O)CC(O)CC(O)CC(O)CC1O (stereo unspecified)					LD50 [5]: 5 mg/kg; LD50 [7]: 18 mg/kg
CC(C)(C)NCC(O)COc1cccc2c1CCC(=O)N2 (stereo unspecified) [CARTEOLOL]	810 mg/kg	656 mg/kg		39.4 mg/kg	
CC(C)(C)NCC(O)COc1ccccc1C#N (stereo unspecified) [BUNITROLOL]	1350 mg/kg	998 mg/kg			
